# US8551999B2, “Heterocyclic compound and pharmaceutical composition thereof” (Otsuka Pharmaceutical Co., Ltd., priority 2007, dated 2013)
row,melting point,Structure (SMILES)
1,221.5 to 222.3 °C,"Br.Cn1c(C(=O)N2CCN(Cc3ccc(OCC(F)F)cc3)CC2)cc2ccc(Oc3ccc(NC(=O)c4ccc(Cl)c(Cl)c4)cn3)cc21 [Example 268, 3,4-Dichloro-N-[6-(2-{4-[4-(2,2-difluoroethoxy)benzyl]piperazine-1-carbonyl}-1-methyl-1H-indol-6-yloxy)pyridin-3-yl]benzamide hydrobromide]"
2,218 to 220 °C,"Br.Br.CCOc1ccc(CN2CCN(C(=O)c3cc4cc(Oc5ccc(NC(=O)c6ccc(Cl)c(Cl)c6)cn5)ccc4n3C)CC2)nc1 [Example 378, 3,4-Dichloro-N-(6-{2-[4-(5-ethoxypyridin-2-ylmethyl)piperazine-1-carbonyl]-1-methyl-1H-indol-5-yloxy}pyridin-3-yl)benzamide dihydrobromide]"
3,99 to 100 °C,"CCOc1cccc(CN2CCN(C(=O)c3cc4cc(Oc5ccc(N(C)C(=O)c6ccc(Cl)c(Cl)c6)cn5)ccc4n3C)CC2)c1.O=C(O)/C=C\C(=O)O [Example 374, 3,4-Dichloro-N-(6-{2-[4-(3-ethoxybenzyl)piperazine-1-carbonyl]-1-methyl-1H-indol-5-yloxy}pyridin-3-yl)-N-methylbenzamide maleate]"
4,188.2 to 191.8 °C,"Br.CN(C(=O)c1ccc(Cl)c(Cl)c1)c1ccc(Oc2ccc3cc(C(=O)N4CCN(Cc5ccc(OC(CF)CF)cc5)CC4)n(C)c3c2)nc1 [Example 485, 3,4-Dichloro-N-[6-(2-{4-[4-(2-fluoro-1-fluoromethylethoxy)-benzyl]piperazine-1-carbonyl}-1-methyl-1H-indol-6-yloxy)pyridin-3-yl]-N-methylbenzamide hydrobromide]"
5,194 to 195 °C,"COc1ccc(CN2CCN(C(=O)c3cc4cc(Oc5ccc(NC(=O)c6ccc(-n7cccc7)nc6)cn5)ccc4n3C)CC2)cc1 [Example 226, N-(6-{2-[4-(4-Methoxybenzyl)piperazine-1-carbonyl]-1-methyl-1H-indol-5-yloxy}pyridin-3-yl)-6-pyrrol-1-ylnicotinamide]"
6,211 to 215 °C,"Br.Br.CN(C(=O)c1ccc(C(F)(F)F)cc1)c1ccc(Oc2ccc3c(c2)cc(C(=O)N2CCN(Cc4ccc(C#N)cn4)CC2)n3C)nc1 [Example 570, N-(6-{2-[4-(5-Cyanopyridin-2-ylmethyl)piperazine-1-carbonyl]-1-methyl-1H-indol-5-yloxy}pyridin-3-yl)-N-methyl-4-trifluoromethyl-benzamide dihydrobromide]"
7,246.4 to 247.2 °C,Cc1ccc(S(=O)(=O)N(C)c2ccc(Oc3ccc4cc(C(=O)N5CCN(Cc6ccc(OCC(F)(F)F)cc6)CC5)n(C)c4c3)nc2)cc1.Cl
8,223 to 225 °C,"Br.Br.COc1ccc(CN2CCN(C(=O)c3cc4cc(Oc5ccc(NC(=O)c6ccc(Cl)c(Cl)c6)cn5)ccc4n3C)CC2)nc1 [Example 388, 3,4-Dichloro-N-(6-{2-[4-(5-methoxypyridin-2-ylmethyl)piperazine-1-carbonyl]-1-methyl-1H-indol-5-yloxy}pyridin-3-yl)benzamide dihydrobromide]"
9,182.9 °C,Cc1cc(C(=O)Nc2ccc(Oc3ccc4cc(C(=O)N5CCN(Cc6ccc(OCC(F)(F)F)cc6)CC5)n(C)c4c3)nc2)ccc1Cl.Cl
10,197.1 to 201.5 °C,"Br.CN(C(=O)c1ccc(Cl)c(Cl)c1)c1ccc(Oc2ccc3cc(C(=O)N4CCN(Cc5ccc(OCC(F)(F)F)cc5)CC4)n(C)c3c2)nc1 [Example 484, 3,4-Dichloro-N-methyl-N-[6-(1-methyl-2-{4-[4-(2,2,2-trifluoro-ethoxy)benzyl]piperazine-1-carbonyl}-1H-indol-6-yloxy)pyridin-3-yl]benzamide hydrobromide]"
11,215 to 217 °C,"Br.Br.Cc1cc(Oc2ccc3c(c2)cc(C(=O)N2CCN(Cc4cccnc4)CC2)n3C)ncc1NC(=O)c1ccc(C(F)(F)F)cc1 [Example 404, N-{4-Methyl-6-[1-methyl-2-(4-pyridin-3-ylmethylpiperazine-1-carbonyl)-1H-indol-5-yloxy]pyridin-3-yl}-4-trifluoromethyl-benzamide dihydrobromide]"
12,232.4 to 232.8 °C,"Br.CN(C(=O)c1ccc(C(F)(F)F)cc1Cl)c1ccc(Oc2ccc3cc(C(=O)N4CCN(Cc5ccc(OCC(F)F)cc5)CC4)n(C)c3c2)nc1 [Example 448, 2-Chloro-N-[6-(2-{4-[4-(2,2-difluoroethoxy)benzyl]piperazine-1-carbonyl}-1-methyl-1H-indol-6-yloxy)pyridin-3-yl]-N-methyl-4-tri-fluoromethylbenzamide hydrobromide]"
13,135.6 to 138.6 °C,"Cc1ccc(S(=O)(=O)N(C)c2ccc(Oc3ccc4cc(C(=O)N5CCN(Cc6ccc(OCC7CC7)cc6)CC5)n(C)c4c3)nc2)cc1 [Example 530, N-(6-{2-[4-(4-Cyclopropylmethoxybenzyl)piperazine-1-carbonyl]-1-methyl-1H-indol-6-yloxy}pyridin-3-yl)-4,N-dimethylbenzene-sulfonamide]"
14,242 to 249 °C,Cc1ccc(S(=O)(=O)N(C)c2ccc(Oc3ccc4cc(C(=O)N5CCN(Cc6ccc7c(c6)OCO7)CC5)n(C)c4c3)nc2)cc1.Cl
15,265.3 to 265.8 °C,Cl.Cn1c(C(=O)N2CCN(Cc3ccc(OC(F)F)cc3)CC2)cc2ccc(Oc3ccc(NC(=O)c4ccc(C(F)(F)F)cc4F)cn3)cc21
16,220.2 to 223.5 °C,"Br.CC(C)Oc1ccc(CN2CCN(C(=O)c3cc4ccc(Oc5ccc(N(C)C(=O)c6ccc(Cl)c(Cl)c6)cn5)cc4n3C)CC2)cc1 [Example 486, 3,4-Dichloro-N-(6-{2-[4-(4-isopropoxybenzyl)piperazine-1-carbonyl]-1-methyl-1H-indol-6-yloxy}pyridin-3-yl)-N-methyl-benzamide hydrobromide]"
17,253 to 254.8 °C,"Br.Cn1c(C(=O)N2CCN(Cc3ccc4c(c3)OC(F)(F)O4)CC2)cc2ccc(Oc3ccc(NC(=O)c4ccc(Cl)c(Cl)c4)cn3)cc21 [Example 467, 3,4-Dichloro-N-(6-{2-[4-(2,2-difluorobenzo[1,3]dioxol-5-yl-methyl)piperazine-1-carbonyl]-1-methyl-1H-indol-6-yloxy}pyridin-3-yl)benzamide hydrobromide]"
18,230.1 to 232 °C,Cc1ccc(C(=O)N(C)c2ccc(Oc3ccc4cc(C(=O)N5CCN(Cc6ccc(OC(C)C)cc6)CC5)n(C)c4c3)nc2)cc1.Cl
19,231 to 233 °C (dec.),"Br.Br.Cn1c(C(=O)N2CCN(Cc3ccccn3)CC2)cc2cc(Oc3ccc(NC(=O)c4ccc(Cl)c(Cl)c4)cn3)ccc21 [Example 564, 3,4-Dichloro-N-{6-[1-methyl-2-(4-pyridin-2-ylmethylpiperazine-1-carbonyl)-1H-indol-5-yloxy]pyridin-3-yl}benzamide dihydrobromide]"
20,226.9 to 229 °C,CCCOc1ccc(CN2CCN(C(=O)c3cc4ccc(Oc5ccc(N(C)C(=O)c6ccc(OC(F)F)cc6)cn5)cc4n3C)CC2)cc1.Cl

row,Structure (SMILES),melting point
1,"Br.Cc1ccc(S(=O)(=O)N(C)c2ccc(Oc3ccc4cc(C(=O)N5CCN(Cc6ccc(OCCC(C)C)cc6)CC5)n(C)c4c3)nc2)cc1 [Example 533, 4,N-Dimethyl-N-[6-(1-methyl-2-{4-[4-(3-methylbutoxy)benzyl]-piperazine-1-carbonyl}-1H-indol-6-yloxy)pyridin-3-yl]benzene-sulfonamide hydrobromide]",236.5 to 238.3 °C (dec.)
